Source: the NIST ThermoML archive (doi:10.1021/acs.jced.5b00259)

Test: xn = mol fraction of the nth substance listed
Settings: 100 kPa, Liquid

CCOS(=O)(=O)[O-].CC[NH+]=C(N(C)C)N(C)C [2-ethyl-1,1,3,3-tetramethylguanidinium ethyl sulfate] + CCCO
Settings	mass density [kg/m3]	viscosity [mPa·s]
293.15 K, x1 = 0.0997	898.6	4.426
293.15 K, x1 = 0.2003	964.92	8.127
293.15 K, x1 = 0.3066	1016.48	16.78
293.15 K, x1 = 0.3996	1051.52	27.09
293.15 K, x1 = 0.5016	1082.4	48.51
293.15 K, x1 = 0.5989	1106.32	82.64
293.15 K, x1 = 0.6984	1126.59	134.4
293.15 K, x1 = 0.7999	1144.02	243.1
293.15 K, x1 = 0.8981	1158.38	405.5
293.15 K, x1 = 1	1170.76	673.4
298.15 K, x1 = 0.0997	894.7	3.9
298.15 K, x1 = 0.2003	961.16	7.044
298.15 K, x1 = 0.3066	1012.78	13.97
298.15 K, x1 = 0.3996	1047.86	22.36
298.15 K, x1 = 0.5016	1078.78	38.84
298.15 K, x1 = 0.5989	1102.73	63.88
298.15 K, x1 = 0.6984	1123.01	100.3
298.15 K, x1 = 0.7999	1140.47	174.3
298.15 K, x1 = 0.8981	1154.86	278.2
298.15 K, x1 = 1	1167.24	441.5
303.15 K, x1 = 0.0997	890.9	3.455
303.15 K, x1 = 0.2003	957.41	6.152
303.15 K, x1 = 0.3066	1009.1	12.3
303.15 K, x1 = 0.3996	1044.26	18.74
303.15 K, x1 = 0.5016	1075.17	31.58
303.15 K, x1 = 0.5989	1099.15	50.4
303.15 K, x1 = 0.6984	1119.44	76.66
303.15 K, x1 = 0.7999	1136.93	128.5
303.15 K, x1 = 0.8981	1151.36	197.5
303.15 K, x1 = 1	1163.76	302.5
308.15 K, x1 = 0.0997	887.03	3.077
308.15 K, x1 = 0.2003	953.65	5.412
308.15 K, x1 = 0.3066	1005.42	10.72
308.15 K, x1 = 0.3996	1040.62	15.88
308.15 K, x1 = 0.5016	1071.58	26.07
308.15 K, x1 = 0.5989	1095.58	40.53
308.15 K, x1 = 0.6984	1115.89	59.78
308.15 K, x1 = 0.7999	1133.41	97.5
308.15 K, x1 = 0.8981	1147.85	145.3
308.15 K, x1 = 1	1160.28	214.6
313.15 K, x1 = 0.0997	883.16	2.751
313.15 K, x1 = 0.2003	949.88	4.79
313.15 K, x1 = 0.3066	1001.73	9.145
313.15 K, x1 = 0.3996	1036.98	13.59
313.15 K, x1 = 0.5016	1068	21.82
313.15 K, x1 = 0.5989	1092.03	33.1
313.15 K, x1 = 0.6984	1112.37	47.59
313.15 K, x1 = 0.7999	1129.9	75.47
313.15 K, x1 = 0.8981	1144.35	110
313.15 K, x1 = 1	1156.8	157.2
318.15 K, x1 = 0.0997	879.26	2.471
318.15 K, x1 = 0.2003	946.11	4.266
318.15 K, x1 = 0.3066	998.04	7.69
318.15 K, x1 = 0.3996	1033.37	11.73
318.15 K, x1 = 0.5016	1064.43	18.48
318.15 K, x1 = 0.5989	1088.5	27.42
318.15 K, x1 = 0.6984	1108.86	38.53
318.15 K, x1 = 0.7999	1126.4	59.7
318.15 K, x1 = 0.8981	1140.87	84.19
318.15 K, x1 = 1	1153.33	118.3
323.15 K, x1 = 0.0997	875.35	2.228
323.15 K, x1 = 0.2003	942.33	3.819
323.15 K, x1 = 0.3066	994.35	6.777
323.15 K, x1 = 0.3996	1029.73	10.2
323.15 K, x1 = 0.5016	1060.87	15.79
323.15 K, x1 = 0.5989	1084.97	23.01
323.15 K, x1 = 0.6984	1105.36	31.66
323.15 K, x1 = 0.7999	1122.93	47.99
323.15 K, x1 = 0.8981	1137.4	66.48
323.15 K, x1 = 1	1149.87	91.22

CC[NH+]=C(N(C)C)N(C)C.O=S(=O)([N-]S(=O)(=O)C(F)(F)F)C(F)(F)F + CCO
Settings	mass density [kg/m3]	viscosity [mPa·s]
293.15 K, x1 = 0.1006	1023.01	2.873
293.15 K, x1 = 0.2004	1148.25	5.27
293.15 K, x1 = 0.3001	1225.91	8.21
293.15 K, x1 = 0.4005	1278.7	13.14
293.15 K, x1 = 0.5018	1316.97	19.52
293.15 K, x1 = 0.6011	1345.48	27.48
293.15 K, x1 = 0.6999	1367.71	36.42
293.15 K, x1 = 0.802	1386.71	47.47
293.15 K, x1 = 0.892	1400.66	59.17
293.15 K, x1 = 1	1414.89	74.61
298.15 K, x1 = 0.1006	1018.29	2.557
298.15 K, x1 = 0.2004	1143.37	4.596
298.15 K, x1 = 0.3001	1221.07	7.081
298.15 K, x1 = 0.4005	1273.82	11.13
298.15 K, x1 = 0.5018	1312.1	16.32
298.15 K, x1 = 0.6011	1340.6	22.71
298.15 K, x1 = 0.6999	1362.79	29.85
298.15 K, x1 = 0.802	1381.82	38.34
298.15 K, x1 = 0.892	1395.79	47.22
298.15 K, x1 = 1	1410.03	58.86
303.15 K, x1 = 0.1006	1013.56	2.289
303.15 K, x1 = 0.2004	1138.51	4.049
303.15 K, x1 = 0.3001	1216.29	6.157
303.15 K, x1 = 0.4005	1268.94	9.534
303.15 K, x1 = 0.5018	1307.24	13.8
303.15 K, x1 = 0.6011	1335.71	19.1
303.15 K, x1 = 0.6999	1357.94	24.85
303.15 K, x1 = 0.802	1376.95	31.52
303.15 K, x1 = 0.892	1390.94	38.37
303.15 K, x1 = 1	1405.19	47.27
308.15 K, x1 = 0.1006	1008.82	2.058
308.15 K, x1 = 0.2004	1133.65	3.587
308.15 K, x1 = 0.3001	1211.51	5.391
308.15 K, x1 = 0.4005	1264.09	8.252
308.15 K, x1 = 0.5018	1302.36	11.95
308.15 K, x1 = 0.6011	1330.83	16.25
308.15 K, x1 = 0.6999	1353.07	20.96
308.15 K, x1 = 0.802	1372.11	26.35
308.15 K, x1 = 0.892	1386.12	31.73
308.15 K, x1 = 1	1400.38	38.71
313.15 K, x1 = 0.1006	1004.07	1.861
313.15 K, x1 = 0.2004	1128.85	3.213
313.15 K, x1 = 0.3001	1206.71	4.757
313.15 K, x1 = 0.4005	1259.25	7.206
313.15 K, x1 = 0.5018	1297.45	10.32
313.15 K, x1 = 0.6011	1325.97	13.99
313.15 K, x1 = 0.6999	1348.22	17.94
313.15 K, x1 = 0.802	1367.28	22.3
313.15 K, x1 = 0.892	1381.31	26.65
313.15 K, x1 = 1	1395.59	32.2
318.15 K, x1 = 0.1006	999.26	1.689
318.15 K, x1 = 0.2004	1124.03	2.884
318.15 K, x1 = 0.3001	1201.81	4.227
318.15 K, x1 = 0.4005	1254.43	6.344
318.15 K, x1 = 0.5018	1292.57	8.977
318.15 K, x1 = 0.6011	1321.11	12.15
318.15 K, x1 = 0.6999	1343.4	15.52
318.15 K, x1 = 0.802	1362.45	19.11
318.15 K, x1 = 0.892	1376.52	22.55
318.15 K, x1 = 1	1390.8	27.09
323.15 K, x1 = 0.1006	994.44	1.515
323.15 K, x1 = 0.2004	1119.21	2.606
323.15 K, x1 = 0.3001	1197.01	3.78
323.15 K, x1 = 0.4005	1249.62	5.627
323.15 K, x1 = 0.5018	1287.74	7.837
323.15 K, x1 = 0.6011	1316.28	10.65
323.15 K, x1 = 0.6999	1338.59	13.58
323.15 K, x1 = 0.802	1357.63	16.54
323.15 K, x1 = 0.892	1371.74	19.32
323.15 K, x1 = 1	1386.03	23.14
